# Assay results from patent US20020103084A1, “Soybean derived pesticide” (priority 2000, published 2002).
# System: Persia mites
# Test: Spray on avocado trees infested with Persia mites
# Type: in vivo
# Details: Example 14, diluted 200 times water
# Procedure: Soybean extract and soybean slurry prepared as described above are used in the following examples. Many of the following examples involve spraying solutions onto leaves. The amount sprayed in the subsequent examples is quantified as spraying an amount sufficient to totally wet the plant or leaf surface.
# The prepared concentrated insecticide is then diluted with 100 times water and thereafter sprayed onto avocado trees infested with Persia mites. A control sample using water was also tested. The results are as follows:
# The effectiveness of soybean extract (Sample I) sprayed upon avocado leaves infested with Persia mites is evaluated. Sample I is diluted at both 100 times and 500 times water and thereafter sprayed onto avocado trees infested with Persia mites. A control sample using water was also tested. The results are as follows:
# The same samples used in Example 5 are also used in testing effectiveness for control of mites. The samples are diluted with 100 times water and sprayed onto avocado trees infested with Persia mites. Two controls were used: the first, pure water; and, the second, clove oil diluted 100 times with water. The test results are as the following:
# The same samples used in Example 7 are also used in testing the control of mites. The samples are diluted with 100 times water and sprayed onto avocado trees infested with Persia mites. The test results are as the following: […]
smiles,measurement,setting,value
"O=C/C=C/c1ccccc1 [Cinnamic Aldehyde, cinnamic aldehyde]",Mortality (%),6 days after spray,57.3%
same,No. Mites 6 Days After Spray,"average number of mites per leaf, avocado trees",10.8
